In ChEMBL document CHEMBL4507303, “Data for DCP probe TP-004” (2021):

Columns and labels:
[1] = target: AP2-associated protein kinase 1 (Homo sapiens) (UniProt Q2M2I8); details: Compound concentration 1000.0 nM
[2] = tested on: Tyrosine-protein kinase ABL1 (Homo sapiens), P00519 [F317I]; details: Compound concentration 1000.0 nM
[3] = tested on: Tyrosine-protein kinase ABL1 (Homo sapiens), P00519 [F317L]; details: Compound concentration 1000.0 nM
[4] = tested on: Tyrosine-protein kinase ABL1 (Homo sapiens), P00519 [M351T]; details: Compound concentration 1000.0 nM
[5] = target: Cyclin-dependent kinase 11B (Homo sapiens) (UniProt P21127); details: Compound concentration 1000.0 nM
[6] = target: Serine/threonine-protein kinase Chk1 (Homo sapiens) (UniProt O14757); details: Compound concentration 1000.0 nM
[7] = target: Serine/threonine-protein kinase Chk2 (Homo sapiens) (UniProt O96017); details: Compound concentration 1000.0 nM
[8] = target: Casein kinase I isoform epsilon (Homo sapiens) (UniProt P49674); details: Compound concentration 1000.0 nM
[9] = target: Casein kinase II subunit alpha' (Homo sapiens) (UniProt P19784); details: Compound concentration 1000.0 nM
[10] = tested on: Epidermal growth factor receptor (Homo sapiens), P00533 [L861Q]; details: Compound concentration 1000.0 nM
[11] = target: Ephrin type-A receptor 6 (Homo sapiens) (UniProt Q9UF33); details: Compound concentration 1000.0 nM
[12] = target: Ephrin type-A receptor 8 (Homo sapiens) (UniProt P29322); details: Compound concentration 1000.0 nM
[13] = target: Ephrin type-B receptor 1 (Homo sapiens) (UniProt P54762); details: Compound concentration 1000.0 nM
[14] = target: Ephrin type-B receptor 2 (Homo sapiens) (UniProt P29323); details: Compound concentration 1000.0 nM
[15] = target: Ephrin type-B receptor 3 (Homo sapiens) (UniProt P54753); details: Compound concentration 1000.0 nM
[16] = target: Cyclin-G-associated kinase (Homo sapiens) (UniProt O14976); details: Compound concentration 1000.0 nM
[17] = target: Homeodomain-interacting protein kinase 2 (Homo sapiens) (UniProt Q9H2X6); details: Compound concentration 1000.0 nM
[18] = target: Insulin receptor-related protein (Homo sapiens) (UniProt P14616); details: Compound concentration 1000.0 nM
[19] = tested on: Mast/stem cell growth factor receptor Kit (Homo sapiens), P10721 [D816H]; details: Compound concentration 1000.0 nM
[20] = target: Dual specificity mitogen-activated protein kinase kinase 2 (Homo sapiens) (UniProt P36507); details: Compound concentration 1000.0 nM
[21] = target: Mitogen-activated protein kinase kinase kinase 10 (Homo sapiens) (UniProt Q02779); details: Compound concentration 1000.0 nM
[22] = target: Mitogen-activated protein kinase kinase kinase 11 (Homo sapiens) (UniProt Q16584); details: Compound concentration 1000.0 nM
[23] = target: Serine/threonine-protein kinase 3 (Homo sapiens) (UniProt Q13188); details: Compound concentration 1000.0 nM
[24] = target: Myosin light chain kinase, smooth muscle (Homo sapiens) (UniProt Q15746); details: Compound concentration 1000.0 nM
[25] = target: Serine/threonine-protein kinase Nek5 (Homo sapiens) (UniProt Q6P3R8); details: Compound concentration 1000.0 nM
[26] = target: Serine/threonine-protein kinase Nek9 (Homo sapiens) (UniProt Q8TD19); details: Compound concentration 1000.0 nM
[27] = target: Mitogen-activated protein kinase 14 (Homo sapiens) (UniProt Q16539); details: Compound concentration 1000.0 nM
[28] = target: Serine/threonine-protein kinase PAK 6 (Homo sapiens) (UniProt Q9NQU5); details: Compound concentration 1000.0 nM
[29] = target: Phosphatidylinositol 3-kinase C2 domain-containing subunit gamma (Homo sapiens) (UniProt O75747); details: Compound concentration 1000.0 nM
[30] = target: Phosphatidylinositol 4,5-bisphosphate 3-kinase catalytic subunit delta isoform (Homo sapiens) (UniProt O00329); details: Compound concentration 1000.0 nM
[31] = target: Serine/threonine-protein kinase D1 (Homo sapiens) (UniProt Q15139); details: Compound concentration 1000.0 nM
[32] = tested on: Proto-oncogene tyrosine-protein kinase receptor Ret (Homo sapiens), P07949 [V804L]; details: Compound concentration 1000.0 nM
[33] = target: Rho-associated protein kinase 2 (Homo sapiens) (UniProt O75116); details: Compound concentration 1000.0 nM
[34] = target: Serine/threonine-protein kinase TAO3 (Homo sapiens) (UniProt Q9H2K8); details: Compound concentration 1000.0 nM
[35] = target: TGF-beta receptor type-2 (Homo sapiens) (UniProt P37173); details: Compound concentration 1000.0 nM
[36] = target: Activated CDC42 kinase 1 (Homo sapiens) (UniProt Q07912); details: Compound concentration 1000.0 nM
[37] = target: Transient receptor potential cation channel subfamily M member 6 (Homo sapiens) (UniProt Q9BX84); details: Compound concentration 1000.0 nM
[38] = target: Testis-specific serine/threonine-protein kinase 1 (Homo sapiens) (UniProt Q9BXA7); details: Compound concentration 1000.0 nM
[39] = target: Dual specificity protein kinase TTK (Homo sapiens) (UniProt P33981); details: Compound concentration 1000.0 nM
[40] = target: Tyrosine-protein kinase receptor TYRO3 (Homo sapiens) (UniProt Q06418); details: Compound concentration 1000.0 nM
[41] = target: Tyrosine-protein kinase Yes (Homo sapiens) (UniProt P07947); details: Compound concentration 1000.0 nM
[42] = target: GABA-A receptor; anion channel (Rattus norvegicus) (UniProt O09028+P15431+P18506+P18508+P19969+P20236+P23574+P23576+P28471+P28473+P30191+P62813+P63079+P63138+Q91ZM7+Q9ES14); details: Compound concentration 10.0 uM
[43] = target: Muscarinic acetylcholine receptor M3 (Homo sapiens) (UniProt P20309); details: Compound concentration 10.0 uM
[44] = target: Muscarinic acetylcholine receptor M5 (Homo sapiens) (UniProt P08912); details: Compound concentration 10.0 uM

Chain of Phosphatidylinositol 4,5-bisphosphate 3-kinase catalytic subunit delta isoform (Homo sapiens) (O00329 whole entry, canonical isoform): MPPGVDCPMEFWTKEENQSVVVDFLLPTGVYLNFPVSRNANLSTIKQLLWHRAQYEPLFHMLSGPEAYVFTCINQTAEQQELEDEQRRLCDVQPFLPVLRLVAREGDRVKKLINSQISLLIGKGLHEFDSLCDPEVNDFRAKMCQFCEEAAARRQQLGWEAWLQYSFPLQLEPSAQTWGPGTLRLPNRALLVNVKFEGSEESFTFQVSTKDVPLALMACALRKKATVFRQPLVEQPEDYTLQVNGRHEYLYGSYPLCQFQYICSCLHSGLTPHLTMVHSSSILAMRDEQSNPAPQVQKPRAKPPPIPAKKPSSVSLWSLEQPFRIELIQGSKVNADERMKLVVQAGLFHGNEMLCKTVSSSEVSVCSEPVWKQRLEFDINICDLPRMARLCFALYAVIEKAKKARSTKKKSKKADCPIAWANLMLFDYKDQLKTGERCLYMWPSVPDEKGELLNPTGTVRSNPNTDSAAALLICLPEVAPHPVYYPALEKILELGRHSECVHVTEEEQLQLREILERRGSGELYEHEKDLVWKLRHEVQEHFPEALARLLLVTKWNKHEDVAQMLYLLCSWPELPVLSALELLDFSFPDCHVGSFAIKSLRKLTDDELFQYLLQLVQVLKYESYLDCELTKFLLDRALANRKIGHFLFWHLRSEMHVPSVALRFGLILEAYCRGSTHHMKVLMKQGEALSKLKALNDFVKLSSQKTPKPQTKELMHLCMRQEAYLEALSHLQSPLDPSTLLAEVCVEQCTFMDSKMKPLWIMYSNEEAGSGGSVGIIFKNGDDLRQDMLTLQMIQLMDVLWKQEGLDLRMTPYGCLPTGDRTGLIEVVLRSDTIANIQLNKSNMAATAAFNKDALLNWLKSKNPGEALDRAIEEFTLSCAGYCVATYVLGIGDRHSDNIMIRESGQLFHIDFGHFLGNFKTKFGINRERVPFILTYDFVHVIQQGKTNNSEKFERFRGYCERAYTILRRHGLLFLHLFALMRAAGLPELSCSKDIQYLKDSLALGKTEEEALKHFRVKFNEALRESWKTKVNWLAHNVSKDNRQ
Chain of Dual specificity protein kinase TTK (Homo sapiens) (P33981 whole entry): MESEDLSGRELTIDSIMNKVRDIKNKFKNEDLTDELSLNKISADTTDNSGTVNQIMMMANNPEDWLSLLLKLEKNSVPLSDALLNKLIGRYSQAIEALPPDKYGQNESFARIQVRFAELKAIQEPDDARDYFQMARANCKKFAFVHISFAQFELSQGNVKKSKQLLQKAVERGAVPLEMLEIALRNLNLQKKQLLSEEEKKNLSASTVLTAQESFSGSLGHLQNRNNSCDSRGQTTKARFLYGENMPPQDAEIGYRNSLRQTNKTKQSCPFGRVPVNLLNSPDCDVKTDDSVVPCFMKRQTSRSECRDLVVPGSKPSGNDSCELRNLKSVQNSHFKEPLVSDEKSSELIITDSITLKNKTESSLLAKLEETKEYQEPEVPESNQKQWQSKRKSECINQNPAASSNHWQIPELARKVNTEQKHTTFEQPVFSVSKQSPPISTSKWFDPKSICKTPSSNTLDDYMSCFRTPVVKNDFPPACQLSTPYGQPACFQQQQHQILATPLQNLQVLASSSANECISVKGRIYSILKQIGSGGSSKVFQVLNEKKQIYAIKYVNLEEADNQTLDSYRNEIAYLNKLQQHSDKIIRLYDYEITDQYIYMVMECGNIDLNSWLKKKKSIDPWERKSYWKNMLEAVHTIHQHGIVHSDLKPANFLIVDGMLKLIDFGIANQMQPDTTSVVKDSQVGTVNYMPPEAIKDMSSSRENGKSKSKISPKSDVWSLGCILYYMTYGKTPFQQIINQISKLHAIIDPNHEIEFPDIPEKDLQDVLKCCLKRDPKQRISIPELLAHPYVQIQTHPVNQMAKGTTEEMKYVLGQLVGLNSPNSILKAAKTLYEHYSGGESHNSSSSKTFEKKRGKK
Chain of Cyclin-G-associated kinase (Homo sapiens) (O14976 whole entry): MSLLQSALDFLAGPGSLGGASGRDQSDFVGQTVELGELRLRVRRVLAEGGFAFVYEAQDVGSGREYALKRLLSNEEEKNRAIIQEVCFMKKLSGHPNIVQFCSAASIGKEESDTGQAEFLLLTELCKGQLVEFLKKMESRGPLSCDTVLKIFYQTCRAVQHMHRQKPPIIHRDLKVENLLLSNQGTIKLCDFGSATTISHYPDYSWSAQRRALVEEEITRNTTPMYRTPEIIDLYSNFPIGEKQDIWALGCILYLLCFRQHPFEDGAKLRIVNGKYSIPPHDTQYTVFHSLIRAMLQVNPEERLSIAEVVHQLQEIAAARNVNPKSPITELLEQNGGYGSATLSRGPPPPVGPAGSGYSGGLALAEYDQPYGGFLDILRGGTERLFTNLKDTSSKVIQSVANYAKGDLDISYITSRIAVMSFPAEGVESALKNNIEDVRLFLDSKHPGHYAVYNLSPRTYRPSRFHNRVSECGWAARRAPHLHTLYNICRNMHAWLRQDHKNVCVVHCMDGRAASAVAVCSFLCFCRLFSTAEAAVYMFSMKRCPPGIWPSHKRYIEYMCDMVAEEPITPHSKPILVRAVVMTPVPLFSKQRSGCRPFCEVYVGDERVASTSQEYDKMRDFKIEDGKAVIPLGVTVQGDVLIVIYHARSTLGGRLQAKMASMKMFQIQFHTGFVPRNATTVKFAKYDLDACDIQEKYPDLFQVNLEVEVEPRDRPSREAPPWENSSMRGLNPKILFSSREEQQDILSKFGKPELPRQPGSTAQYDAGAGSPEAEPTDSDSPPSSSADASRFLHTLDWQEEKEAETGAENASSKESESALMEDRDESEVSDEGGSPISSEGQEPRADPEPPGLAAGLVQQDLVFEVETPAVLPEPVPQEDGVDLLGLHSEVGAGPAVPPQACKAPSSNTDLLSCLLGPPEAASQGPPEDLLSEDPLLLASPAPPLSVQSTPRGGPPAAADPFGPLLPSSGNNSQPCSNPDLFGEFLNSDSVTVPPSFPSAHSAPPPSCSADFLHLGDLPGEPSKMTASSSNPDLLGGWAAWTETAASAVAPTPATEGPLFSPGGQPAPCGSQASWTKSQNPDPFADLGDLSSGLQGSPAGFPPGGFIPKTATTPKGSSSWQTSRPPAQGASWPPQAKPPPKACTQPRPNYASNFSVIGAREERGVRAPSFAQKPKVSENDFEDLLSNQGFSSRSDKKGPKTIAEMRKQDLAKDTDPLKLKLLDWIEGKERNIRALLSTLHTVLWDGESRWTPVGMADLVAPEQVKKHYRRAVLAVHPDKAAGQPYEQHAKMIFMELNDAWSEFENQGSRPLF
Chain of Casein kinase I isoform epsilon (Homo sapiens) (P49674 whole entry, looked up, canonical isoform): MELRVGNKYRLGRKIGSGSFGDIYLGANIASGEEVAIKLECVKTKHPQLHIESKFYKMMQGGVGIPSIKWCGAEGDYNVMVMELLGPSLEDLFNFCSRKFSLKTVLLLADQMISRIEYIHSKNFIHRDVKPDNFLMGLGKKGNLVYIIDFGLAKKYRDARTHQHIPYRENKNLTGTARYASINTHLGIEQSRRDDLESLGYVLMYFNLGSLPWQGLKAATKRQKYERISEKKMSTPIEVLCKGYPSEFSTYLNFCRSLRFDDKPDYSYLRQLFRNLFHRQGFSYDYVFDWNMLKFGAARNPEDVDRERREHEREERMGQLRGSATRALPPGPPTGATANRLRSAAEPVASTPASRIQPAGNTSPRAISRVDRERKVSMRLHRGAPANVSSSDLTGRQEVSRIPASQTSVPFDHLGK
Chain of Ephrin type-B receptor 1 (Homo sapiens) (P54762 whole entry): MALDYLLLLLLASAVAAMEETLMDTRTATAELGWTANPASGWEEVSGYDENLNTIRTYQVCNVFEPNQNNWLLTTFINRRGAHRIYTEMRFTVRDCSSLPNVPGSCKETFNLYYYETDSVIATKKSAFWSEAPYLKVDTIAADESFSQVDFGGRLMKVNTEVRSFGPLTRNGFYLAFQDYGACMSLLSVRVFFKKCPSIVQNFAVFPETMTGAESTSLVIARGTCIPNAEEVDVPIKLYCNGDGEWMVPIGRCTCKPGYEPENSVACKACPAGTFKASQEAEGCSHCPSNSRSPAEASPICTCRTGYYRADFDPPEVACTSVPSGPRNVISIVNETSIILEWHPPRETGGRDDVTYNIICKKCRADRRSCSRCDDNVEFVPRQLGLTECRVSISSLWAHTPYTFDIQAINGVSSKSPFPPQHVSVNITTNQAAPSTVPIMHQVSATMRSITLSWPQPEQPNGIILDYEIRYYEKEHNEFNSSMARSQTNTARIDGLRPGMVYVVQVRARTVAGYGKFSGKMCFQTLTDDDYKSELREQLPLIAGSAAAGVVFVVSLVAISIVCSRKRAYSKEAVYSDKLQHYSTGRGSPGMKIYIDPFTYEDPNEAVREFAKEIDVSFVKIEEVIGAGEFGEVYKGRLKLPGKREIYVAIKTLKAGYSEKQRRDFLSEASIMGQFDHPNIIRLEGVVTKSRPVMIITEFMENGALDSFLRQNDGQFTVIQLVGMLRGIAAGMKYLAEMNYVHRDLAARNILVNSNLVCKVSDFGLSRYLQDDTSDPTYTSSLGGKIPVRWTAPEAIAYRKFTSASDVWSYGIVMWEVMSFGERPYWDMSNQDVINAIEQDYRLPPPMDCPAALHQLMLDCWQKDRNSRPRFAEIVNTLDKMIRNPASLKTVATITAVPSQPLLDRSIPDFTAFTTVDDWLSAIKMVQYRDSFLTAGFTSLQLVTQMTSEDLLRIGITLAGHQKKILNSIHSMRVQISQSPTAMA
Chain of Dual specificity mitogen-activated protein kinase kinase 2 (Homo sapiens) (P36507 whole entry): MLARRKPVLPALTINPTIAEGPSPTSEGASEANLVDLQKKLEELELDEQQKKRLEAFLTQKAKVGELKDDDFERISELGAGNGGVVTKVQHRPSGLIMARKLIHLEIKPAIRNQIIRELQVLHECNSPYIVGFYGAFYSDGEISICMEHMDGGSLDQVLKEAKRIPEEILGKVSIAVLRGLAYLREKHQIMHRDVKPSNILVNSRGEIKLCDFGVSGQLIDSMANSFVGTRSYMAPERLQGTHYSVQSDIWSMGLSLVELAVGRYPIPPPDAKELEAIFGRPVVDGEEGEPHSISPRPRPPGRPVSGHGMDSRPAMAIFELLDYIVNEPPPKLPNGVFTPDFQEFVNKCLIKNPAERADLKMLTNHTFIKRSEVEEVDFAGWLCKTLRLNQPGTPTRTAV

Cc1nc(N2CC[C@@H](O)C2)ncc1-c1cc(C(F)(F)F)cc2[nH]ncc12 [TP-004]
inactive: residual activity [1] 100% | residual activity [2] 73% | residual activity [3] 100% | residual activity [4] 72% | residual activity [5] 94% | residual activity [6] 100% | residual activity [7] 96% | residual activity [8] 79% | residual activity [9] 91% | residual activity [10] 100% | residual activity [11] 100% | residual activity [12] 61% | residual activity [13] 73% | residual activity [14] 100% | residual activity [15] 100% | residual activity [16] 83% | residual activity [17] 74% | residual activity [18] 87% | residual activity [19] 53% | residual activity [20] 74% | residual activity [21] 100% | residual activity [22] 100% | residual activity [23] 80% | residual activity [24] 100% | residual activity [25] 100% | residual activity [26] 96% | residual activity [27] 100% | residual activity [28] 100% | residual activity [29] 90% | residual activity [30] 72% | residual activity [31] 75% | residual activity [32] 100% | residual activity [33] 77% | residual activity [34] 82% | residual activity [35] 99% | residual activity [36] 90% | residual activity [37] 52% | residual activity [38] 98% | residual activity [39] 100% | residual activity [40] 66% | residual activity [41] 90% | inhibition [42] 16.2% | inhibition [43] -2.13% | inhibition [44] 0.643%
